The source of these data is patent US20240385182A1, “MASKED FLUOROGENIC LIPID COMPOUNDS, LIPID PARTICLES COMPRISING THE SAME, AND METHODS OF USE THEREOF” (Rutgers, The State University of New Jersey, priority 2023, published 2024).

Series [1] in a line: Photophysical characterization of probes and uncaged forms (relative fluorescence quantum yield, extinction coefficient, brightness). The following applies: for Relative Brightness: Table 3; for Brightness: in M⁻¹·cm⁻¹ (unit assumed). It counts as physicochemical. The protocol: The pKa of TEG-TC was determined to be 7.1±0.1 using UV-Vis spectrophotometric measurements. Under the confocal imaging conditions (pH 7.5-8.5 with cell-free assays, pH 7.4 with cells), a substantial population of the 7-hydroxycoumarin should exist in its aryloxide form. The change in coumarin fluorogenicity was assessed upon uncaging the probes from the oxobutylphenyl carbonate by measuring the relative fluorescence quantum yield (ΦFrel) values (Table 2). Coumarin 343 was used as a standard, which has an absolute fluorescence quantum yield ([…]) of 0.63 in ethanol. The ΦFrel values of TEG-TC-ONOO^− (entry 1) and DPPC-TC-ONOO^− (entry 3) were measured as 0.08 and 0.09, respectively. […] The ΦFrel values for TEG-TC (entry 2) and DPPC-TC (entry 4), which were synthesized independently, were measured as 0.66 and 0.64, respectively.
Next, the impact of caging and uncaging of the coumarin or fluorescein moieties on their fluorogenicity was assessed by measuring the relative fluorescence quantum yield (ΦFrel) values (Table 3). Coumarin 343 was used as the standard for measuring ΦFrel of the triazole-coumarin compounds (TEG-TC-H2S, TEG-TC, DPPC-TC-H2S, and DPPC-TC) whereas fluorescein for the triazole-fluorescein compounds (TEG-TF-H2O2, TEG-TF, and DPPC-TF-H2O2, and DPPC-TF). Relative to coumarin 343, whose absolute fluorescence quantum yield (ΦF) is 0.63 in ethanol, ΦFrels of the H2S probes TEG-TC-H2S (entry 1) and DPPC-TC-H2S (entry 3) were determined to be 0.07 and 0.03, respectively.
The pKa of TEG-TC was previously found to be to be 7.1±0.1 using UV-Vis spectrophotometric measurements. Under the fluorescence activation assay conditions that are employed here (Tris 50 mM, pH 7.5), a substantial population of the coumarin moiety is expected to be in its aryloxide anion form. Relative to fluorescein, whose ΦF is 0.79 in ethanol, ΦFrel values of the H2O2 probes TEG-TF-H2O2 (entry 5) and DPPC-TF-H2O2 (entry 7) were determined to be 0.04 and 0.02, respectively.

Series [2] in a line: Confocal imaging of H2S-sensing giant vesicles. The following applies: GVs with POPC, POPG, cholesterol; H2S (500 μM) over 1 hour. From the text:
FIGS. 14A-14B: giant vesicles (GVs) that can sense reductive (FIG. 14A) or oxidative (FIG. 14B) environments. Confocal images acquired for H2S-sensing GV at 405/475 nm (ex/em) (FIG. 14A) and H2O2 sensing GV at 490/520 nm (ex/em) (FIG. 14B). Lipid compositions of GVs: POPC, POPG, cholesterol, and DPPC-TC-H2S (48:21:30:1 molar ratio; FIG. 14A); and POPC, POPG, cholesterol, and DPPC-TF-H2O2 (48.5:21:30:0.5; FIG. 14B). To label vesicle membranes, Liss-Rhod PE dye (563/580 nm) was introduced to the lipid mixture at an insignificant molar ratio (0.1 mol %). Concentrations of RSS and ROS were set to 500 and 100 μM, respectively. Scale bar=5 μm.
The redox sensing abilities of giant vesicles (GVs) comprising DPPC-TC-H2S or DPPC-TF-H2O2 were investigated. In most biomimetic systems that rely on compartmentalization, physical membrane boundaries are comprised of phospholipids and cholesterol. These lipid self-assemblies have dimensional properties (1-30 μm in diameter) relevant to those of a mammalian plasma membrane (10-100 μm), display physical characteristics feasible for confocal fluorescence imaging, and are conveniently utilized for bottom-up construction of biomimetic protocells. […]
The vesicle size distribution was analyzed by dynamic light scattering (DLS), confirming the presence of GVs. […]

A short description of series [3]: Fluorescence activation and LoD of TEG-TF-H2O2 with H2O2 in Tris buffer. The procedure:
FIGS. 13A-13D: specificity (FIGS. 13A-13B) and limit of detection (LoD) (FIGS. 13C-13D) of TEG-TC-H2S and TEG-TF-H2O2. LoD measurements for the probes TEG-TC-H2S (390/475 nm) and TEG-TF-H2O2 (485/525 nm) were performed in Tris buffer (50 mM, pH 7.5). Error bars represent the standard deviation; n=3. Single-tailed Student's t test: *, P<0.05; **, P<0.01; ***, P<0.001; ****, P<0.0001.
(§1) The redox-specificities of the non-amphiphilic probes, TEG-TC-H2S or TEG-TF-H2O2, were assessed by subjecting them to various RSS or ROS (FIGS. 13A-13B). Change in fluorescence intensity following excitation of each sample containing the respective probe was measured over 120 minutes of incubation and presented based on the signal-to-background ratio F/F0, where F and F0 are defined as the fluorescence with and without the redox species. The F/F0 of the untreated samples were set to 1 for comparisons. […] Samples containing TEG-TF-H2O2 and treated with 100 μM H2O2 presented a steady fluorescence enhancement within 2 hours, resulting in 4.4-fold higher fluorescence than those of the untreated samples (FIG. 13B).
(§2) The specificity of TEG-TC-H2S toward H2S was evaluated by comparing its reactivity against different RSS, cysteine (Cys), glutathione (GSH), sulfite (SO3^2−), and thiosulfate (S2O3^2−). At 1 mM initial concentration and a total incubation time of 2 hours, these sulfur species induced an increase in coumarin fluorescence by less than 25% compared to the untreated sample (FIG. 13A). […] The specificity of TEG-TF-H2O2 toward H2O2 was also assessed, by incubating the samples containing TEG-TF-H2O2 with 100 μM either hydroxyl radical (·OH), nitric oxide (NO), or superoxide radical (O2·^−) for 2 hours. Among these three reactive oxygen species, ·OH induced the highest fluorescence increase (2.2-fold), which was lower than that for H2O2 (4.4-fold). The relatively low yet observable reactivity of ·OH may have been due, in large part, to the residual unreacted H2O2 used for generating ·OH. […]

A short description of series [4]: Specificity of TEG-TF-H2O2 against other ROS. Conditions: ·OH 100 μM, 2 hours. The procedure: as §1
as §2, with “hours.” for “hours. Among these three reactive oxygen species, ·OH induced the highest fluorescence increase (2.2-fold), which was lower than that for H2O2 (4.4-fold). The relatively low yet observable reactivity of ·OH may have been due, in large part, to the residual unreacted H2O2 used for generating ·OH.”

`CCCCCCCCCCCCCCCC(=O)OCC(COP(=O)([O-])OCC[N+](C)(C)Cc1cn(-c2cc3ccc(OCc4ccc(N=[N+]=[N-])cc4)cc3oc2=O)nn1)OC(=O)CCCCCCCCCCCCCCC` (racemic) [DPPC-TC-H2S]: in series [1], the Emmax is 473.5 nm, the Exmax is 396.5 nm, the “Ext. Coeff.” value amounted to 24111 M⁻¹ cm⁻¹ and the Brightness is given as 72. The “Relative Brightness” value in series [1] (brightness compared to that of DPPC-TC-H2S) was 1.0. For the same molecule, the “Quantum Yield (relative fluorescence quantum yield ΦFrel)” value in series [1] (standard coumarin 343) was 0.03. Further, in series [2], the GV fluorescence result was “significant increase in fluorescence”.

Turning to `CC1(C)OB(c2ccc(COC(=O)Oc3ccc4c(c3)Oc3cc(OC(=O)OCc5ccc(B6OC(C)(C)C(C)(C)O6)cc5)ccc3C43OC(=O)c4cc(-n5cc(COCCOCCOCCO)nn5)ccc43)cc2)OC1(C)C` [TEG-TF-H2O2], in series [1], the Emmax worked out at 526.0 nm, the Exmax is given as 492.0 nm, the “Ext. Coeff.” value worked out at 13429 M⁻¹ cm⁻¹ and the Brightness was found to be 537. The “Relative Brightness” value in series [1] (brightness compared to that of DPPC-TF-H2O2) amounted to 2.5. Also, the “Quantum Yield (relative fluorescence quantum yield ΦFrel)” value in series [1] (standard fluorescein) is listed as 0.04. Besides, the “fluorescence compared to untreated samples” value in series [3] (100 μM H2O2, 2 hours, Tris pH 7.5) was found to be 4.4 fold. The LoD in series [3] (minimum H2O2 concentration at which F is statistically higher than F0, 485/525 nm, Tris 50 mM pH 7.5) was 10 µM. Further, the “fluorescence increase of the untreated sample compared to the fluorescence at 1 min (possible hydrolysis)” value in series [3] (no redox species, pH 7.5, 120 minutes) is 277%. Further, in series [4], the fluorescence increase is given as 2.2 fold.
